Assay results: ChEMBL document CHEMBL2417370, “The effect of novel [3-fluoro-(2-phosphonoethoxy)propyl]purines on the inhibition of Plasmodium falciparum, Plasmodium vivax and human hypoxanthine-guanine-(xanthine) phosphoribosyltransferases” (Eur J Med Chem, 2013)
Active and inactive are the calls of the source. No cut-off for these calls is given here.

Assays:
Maize streak virus = experiment: Antiviral activity against MSV; assay type: functional
[1] = test system: Human immunodeficiency virus; experiment: Antiviral activity against HIV; assay type: functional, organism-based
Bordetella pertussis = experiment: Effect on Bordetella pertussis adenylyl cyclase
[2] = molecular target: T1, Hypoxanthine-guanine phosphoribosyltransferase (Homo sapiens, UniProt P00492); experiment: Inhibition of recombinant human HGPRT expressed in Escherichia coli Sphi606 cells by spectrophotometric analysis
T1 sequence (P00492 whole entry): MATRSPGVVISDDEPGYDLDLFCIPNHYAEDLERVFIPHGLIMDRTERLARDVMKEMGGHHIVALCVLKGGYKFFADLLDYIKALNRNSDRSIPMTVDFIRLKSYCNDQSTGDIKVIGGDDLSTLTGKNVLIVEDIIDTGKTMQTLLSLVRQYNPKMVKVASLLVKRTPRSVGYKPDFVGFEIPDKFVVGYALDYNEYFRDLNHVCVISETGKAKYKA

Hepatitis C virus = experiment: Antiviral activity against HCV; assay type: functional, organism-based; conditions: Hepacivirus hominis
[3] = Inhibition of recombinant Plasmodium falciparum HGXPRT expressed in Escherichia coli Sphi606 cells by spectrophotometric analysis
[4] = Inhibition of recombinant Plasmodium vivax HGXPRT expressed in Escherichia coli by spectrophotometric analysis

Q: Which results are given for `O=c1[nH]cnc2c1ncn2CC(CF)OCCP(=O)(O)O` (racemic)?
A: Activity (Maize streak virus): inactive; Activity [1]: inactive; Activity (Bordetella pertussis): inactive; Ki [2]: 5.4 µM; Activity (Hepatitis C virus): inactive; Ki [3]: ≥ 200 µM; Ki [4]: ≥ 100 µM

Q: Which Ki [2] does the source give for `O=c1[nH]cnc2c1ncn2C[C@@H](CF)OCP(=O)(O)O` here?
A: ≥ 250 µM

Q: And the Ki [3]?
A: 13 µM

Q: And the Ki [4]?
A: ≥ 250 µM

Q: For `Nc1nc2c(ncn2CC(CF)OCCP(=O)(O)O)c(=O)[nH]1` (racemic), which Activity (Maize streak virus) is on record?
A: inactive

Q: And the Activity [1]?
A: inactive

Q: What about the Activity (Bordetella pertussis) of the same compound?
A: inactive

Q: And the Ki [2]?
A: 3.7 µM

Q: What about the Activity (Hepatitis C virus) of the same compound?
A: inactive

Q: And the Ki [3]?
A: 1 µM

Q: What about the Ki [4] of the same compound?
A: 7 µM

Q: For `O=c1[nH]cnc2c1ncn2C[C@@H](CF)OCCP(=O)(O)O`, which Activity (Maize streak virus) is on record?
A: inactive

Q: And the Activity [1]?
A: inactive

Q: What about the Activity (Bordetella pertussis) of the same compound?
A: inactive

Q: And the Ki [2]?
A: 1.6 µM

Q: And the Activity (Hepatitis C virus)?
A: inactive

Q: What about the Ki [3] of the same compound?
A: ≥ 300 µM

Q: And the Ki [4]?
A: ≥ 300 µM

Q: What does the source list for `O=c1[nH]cnc2c1ncn2C[C@H](CF)OCCP(=O)(O)O`?
A: Activity (Maize streak virus): inactive; Activity [1]: inactive; Activity (Bordetella pertussis): inactive; Ki [2]: ≥ 200 µM; Activity (Hepatitis C virus): inactive; Ki [3]: ≥ 200 µM; Ki [4]: ≥ 200 µM

Q: For `O=c1[nH]cnc2c1ncn2C[C@H](CF)OCP(=O)(O)O`, which Ki [2] is on record?
A: ≥ 200 µM

Q: What about the Ki [3] of the same compound?
A: 63 µM

Q: What about the Ki [4] of the same compound?
A: ≥ 200 µM

Q: For `Nc1nc(NC2CC2)c2ncn(CC(CF)OCCP(=O)(O)O)c2n1` (stereo unspecified), which Activity (Maize streak virus) is on record?
A: inactive

Q: What about the Activity [1] of the same compound?
A: inactive

Q: What about the Activity (Bordetella pertussis) of the same compound?
A: inactive

Q: And the Activity (Hepatitis C virus)?
A: inactive

Q: What does the source list for `Nc1nc2c(ncn2C[C@H](CF)OCCP(=O)(O)O)c(=O)[nH]1`?
A: Activity (Maize streak virus): inactive; Activity [1]: inactive; Activity (Bordetella pertussis): inactive; Ki [2]: 4.7 µM; Activity (Hepatitis C virus): inactive; Ki [3]: 1 µM; Ki [4]: 29 µM

Q: With `Nc1nc(O)c2ncn(C[C@@H](CF)OCP(=O)(O)O)c2n1` as the compound, how does the Ki [2] read?
A: ≥ 250 µM

Q: And the Ki [3]?
A: ≥ 250 µM

Q: And the Ki [4]?
A: ≥ 250 µM

Q: Which results are given for `Nc1nc2c(ncn2C[C@@H](CF)OCCP(=O)(O)O)c(=O)[nH]1`?
A: Activity (Maize streak virus): inactive; Activity [1]: inactive; Activity (Bordetella pertussis): inactive; Ki [2]: 0.1 µM; Activity (Hepatitis C virus): inactive; Ki [3]: 1.2 µM; Ki [4]: 3.4 µM

Q: With `Nc1nc(N)c2ncn(CC(CF)OCCP(=O)(O)O)c2n1` (stereo unspecified) as the compound, how does the Activity (Maize streak virus) read?
A: inactive

Q: What about the Activity [1] of the same compound?
A: inactive

Q: What about the Activity (Bordetella pertussis) of the same compound?
A: inactive

Q: And the Activity (Hepatitis C virus)?
A: inactive

Q: Which Activity (Maize streak virus) does the source give for `Nc1ncnc2c1ncn2CC(CF)OCCP(=O)(O)O` (stereo unspecified) here?
A: inactive

Q: And the Activity [1]?
A: inactive

Q: What about the Activity (Bordetella pertussis) of the same compound?
A: inactive

Q: What about the Activity (Hepatitis C virus) of the same compound?
A: inactive

Q: What does the source list for `Nc1nc(O)c2ncn(C[C@H](CF)OCP(=O)(O)O)c2n1`?
A: Ki [2]: ≥ 300 µM; Ki [3]: ≥ 300 µM; Ki [4]: ≥ 300 µM
